Test results from ChEMBL document CHEMBL1275492, “In vitro activity of ceftobiprole against pathogens from two phase 3 clinical trials of complicated skin and skin structure infections” (2008).
≈ marks a conversion by molar mass, not a printed value.

Legend:
Assay type in all cases: functional
[1] = test system: Enterococcus faecalis; assay: Antibacterial activity against Enterococcus faecalis obtained from complicated skin and skin structure infections by agar dilution method
[2] = test system: Enterobacter amnigenus; assay: Antibacterial activity against Enterobacter amnigenus obtained from complicated skin and skin structure infections by agar dilution method; conditions: Lelliottia amnigena
[3] = test system: Escherichia coli; assay: Antibacterial activity against Escherichia coli obtained from complicated skin and skin structure infections by agar dilution method
[4] = test system: Klebsiella aerogenes; assay: Antibacterial activity against Enterobacter aerogenes obtained from complicated skin and skin structure infections by agar dilution method
[5] = test system: Pseudomonas aeruginosa; assay: Antibacterial activity against Pseudomonas aeruginosa obtained from complicated skin and skin structure infections by agar dilution method
[6] = test system: Staphylococcus intermedius; assay: Antibacterial activity against Staphylococcus intermedius obtained from complicated skin and skin structure infections by agar dilution method
[7] = test system: Staphylococcus aureus; assay: Antibacterial activity against Staphylococcus aureus obtained from complicated skin and skin structure infections by agar dilution method
[8] = test system: Staphylococcus; assay: Antibacterial activity against methicillin-susceptible, coagulase-negative Staphylococcus obtained from complicated skin and skin structure infections by agar dilution method
[9] = test system: Streptococcus agalactiae; assay: Antibacterial activity against Streptococcus agalactiae obtained from complicated skin and skin structure infections by agar dilution method
[10] = test system: Mammaliicoccus sciuri; assay: Antibacterial activity against coagulase-negative Staphylococcus sciuri obtained from complicated skin and skin structure infections by agar dilution method
[11] = test system: Morganella morganii; assay: Antibacterial activity against Morganella morganii obtained from complicated skin and skin structure infections by agar dilution method
[12] = test system: Acinetobacter baumannii; assay: Antibacterial activity against Acinetobacter baumannii obtained from complicated skin and skin structure infections by agar dilution method
[13] = test system: Prevotella; assay: Antibacterial activity against Prevotella spp. obtained from complicated skin and skin structure infections by agar dilution method
[14] = test system: Micrococcus; assay: Antibacterial activity against Micrococcus spp. obtained from complicated skin and skin structure infections by agar dilution method
[15] = test system: Staphylococcus lugdunensis; assay: Antibacterial activity against methicillin-resistant, oxacillin-susceptible, coagulase-negative, mecA-positive Staphylococcus lugdunensis obtained from complicated skin and skin structure infections by agar dilution method
[16] = test system: Proteus penneri; assay: Antibacterial activity against Proteus penneri obtained from complicated skin and skin structure infections by agar dilution method
[17] = test system: Staphylococcus epidermidis; assay: Antibacterial activity against coagulase-negative Staphylococcus epidermidis obtained from complicated skin and skin structure infections by agar dilution method
[18] = test system: Lactococcus lactis; assay: Antibacterial activity against Lactococcus lactis obtained from complicated skin and skin structure infections by agar dilution method
[19] = test system: Providencia stuartii; assay: Antibacterial activity against Providencia stuartii obtained from complicated skin and skin structure infections by agar dilution method
[20] = test system: Citrobacter freundii; assay: Antibacterial activity against Citrobacter freundii obtained from complicated skin and skin structure infections by agar dilution method
[21] = test system: Enterobacter cloacae; assay: Antibacterial activity against Enterobacter cloacae obtained from complicated skin and skin structure infections by agar dilution method
[22] = test system: Streptococcus mitis; assay: Antibacterial activity against Streptococcus mitis obtained from complicated skin and skin structure infections by agar dilution method
[23] = test system: Streptococcus constellatus; assay: Antibacterial activity against Streptococcus constellatus obtained from complicated skin and skin structure infections by agar dilution method
[24] = test system: Serratia marcescens; assay: Antibacterial activity against Serratia marcescens obtained from complicated skin and skin structure infections by agar dilution method
[25] = test system: Bacteroides fragilis; assay: Antibacterial activity against Bacteroides fragilis obtained from complicated skin and skin structure infections by agar dilution method
[26] = test system: Klebsiella pneumoniae; assay: Antibacterial activity against Klebsiella pneumoniae obtained from complicated skin and skin structure infections by agar dilution method
[27] = test system: Pseudomonas fluorescens; assay: Antibacterial activity against Pseudomonas fluorescens obtained from complicated skin and skin structure infections by agar dilution method
[28] = test system: Staphylococcus hominis; assay: Antibacterial activity against coagulase-negative Staphylococcus hominis obtained from complicated skin and skin structure infections by agar dilution method
[29] = test system: Proteus mirabilis; assay: Antibacterial activity against Proteus mirabilis obtained from complicated skin and skin structure infections by agar dilution method
[30] = test system: Proteus vulgaris; assay: Antibacterial activity against Proteus vulgaris obtained from complicated skin and skin structure infections by agar dilution method
[31] = test system: Staphylococcus saprophyticus; assay: Antibacterial activity against coagulase-negative Staphylococcus saprophyticus obtained from complicated skin and skin structure infections by agar dilution method
[32] = test system: Streptococcus pyogenes; assay: Antibacterial activity against Streptococcus pyogenes obtained from complicated skin and skin structure infections by agar dilution method
[33] = test system: Stenotrophomonas maltophilia; assay: Antibacterial activity against Stenotrophomonas maltophilia obtained from complicated skin and skin structure infections by agar dilution method
[34] = Antibacterial activity against Streptococcus sp. 'group C' obtained from complicated skin and skin structure infections by agar dilution method
[35] = test system: Enterococcus faecium; assay: Antibacterial activity against Enterococcus faecium obtained from complicated skin and skin structure infections by agar dilution method
[36] = test system: Staphylococcus capitis; assay: Antibacterial activity against coagulase-negative Staphylococcus capitis obtained from complicated skin and skin structure infections by agar dilution method
[37] = test system: Gemella morbillorum; assay: Antibacterial activity against Gemella morbillorum obtained from complicated skin and skin structure infections […]
[38] = test system: Bacillus; assay: Antibacterial activity against Bacillus spp. obtained from complicated skin and skin structure infections by agar dilution method
[39] = test system: Staphylococcus cohnii; assay: Antibacterial activity against coagulase-negative Staphylococcus cohnii obtained from complicated skin and skin structure infections by agar dilution method
[40] = test system: Staphylococcus haemolyticus; assay: Antibacterial activity against coagulase-negative Staphylococcus haemolyticus obtained from complicated skin and skin structure infections by agar dilution method
[41] = Antibacterial activity against Streptococcus sp. 'group G' obtained from complicated skin and skin structure infections by agar dilution method
[42] = test system: Klebsiella oxytoca; assay: Antibacterial activity against Klebsiella oxytoca obtained from complicated skin and skin structure infections by agar dilution method
[43] = test system: Staphylococcus aureus; assay: Antibacterial activity against methicillin resistant Staphylococcus aureus obtained from complicated skin and skin structure infections by agar dilution method
[44] = test system: Staphylococcus aureus; assay: Antibacterial activity against methicillin susceptible Staphylococcus aureus obtained from complicated skin and skin structure infections by agar dilution method
[45] = test system: Citrobacter braakii; assay: Antibacterial activity against Citrobacter braakii obtained from complicated skin and skin structure infections by agar dilution method
[46] = test system: Veillonella; assay: Antibacterial activity against Veillonella spp. obtained from complicated skin and skin structure infections by agar dilution method
[47] = test system: Staphylococcus lugdunensis; assay: Antibacterial activity against coagulase-negative Staphylococcus lugdunensis obtained from complicated skin and skin structure infections by agar dilution method
[48] = test system: Staphylococcus warneri; assay: Antibacterial activity against coagulase-negative Staphylococcus warneri obtained from complicated skin and skin structure infections by agar dilution method
[49] = test system: Aerococcus viridans; assay: Antibacterial activity against Aerococcus viridans obtained from complicated skin and skin structure infections by agar dilution method
[50] = test system: Gemella; assay: Antibacterial activity against Gemella spp. obtained from complicated skin and skin structure infections by agar dilution method
[51] = test system: Salmonella; assay: Antibacterial activity against Salmonella spp. obtained from complicated skin and skin structure infections by agar dilution method

Compound: Nc1nc(/C(=N/O)C(=O)N[C@@H]2C(=O)N3C(C(=O)O)=C(/C=C4\CCN([C@@H]5CCNC5)C4=O)CS[C@H]23)ns1 [CEFTOBIPROLE]
- MIC50 [1]: 0.5 µg/mL (≈ 0.935 µM)
- MIC90 [1]: 0.5 µg/mL (≈ 0.935 µM)
- MIC50 [2]: 0.06 µg/mL (≈ 0.112 µM)
- MIC90 [2]: 32 µg/mL (≈ 59.9 µM)
- MIC50 [3]: 0.06 µg/mL (≈ 0.112 µM)
- MIC90 [3]: 0.12 µg/mL (≈ 0.224 µM)
- MIC50 [4]: 0.06 µg/mL (≈ 0.112 µM)
- MIC90 [4]: 32 µg/mL (≈ 59.9 µM)
- MIC50 [5]: 4 µg/mL (≈ 7.48 µM)
- MIC90 [5]: > 64 µg/mL
- MIC50 [6]: 0.06 µg/mL (≈ 0.112 µM)
- MIC90 [6]: 0.12 µg/mL (≈ 0.224 µM)
- MIC50 [7]: 0.5 µg/mL (≈ 0.935 µM)
- MIC90 [7]: 1 µg/mL (≈ 1.87 µM)
- MIC50 [8]: 0.25 µg/mL (≈ 0.468 µM)
- MIC90 [8]: 0.5 µg/mL (≈ 0.935 µM)
- MIC50 [9]: 0.06 µg/mL (≈ 0.112 µM)
- MIC90 [9]: 0.12 µg/mL (≈ 0.224 µM)
- MIC50 [10]: 0.5 µg/mL (≈ 0.935 µM)
- MIC90 [10]: 1 µg/mL (≈ 1.87 µM)
- MIC50 [11]: 0.12 µg/mL (≈ 0.224 µM)
- MIC90 [11]: 64 µg/mL (≈ 120 µM)
- MIC50 [12]: > 64 µg/mL
- MIC90 [12]: > 64 µg/mL
- MIC [13]: ≤ 0.03 µg/mL
- MIC50 [14]: 0.12 µg/mL (≈ 0.224 µM)
- MIC90 [14]: 0.25 µg/mL (≈ 0.468 µM)
- MIC50 [15]: 0.5 µg/mL (≈ 0.935 µM)
- MIC90 [15]: 2 µg/mL (≈ 3.74 µM)
- MIC50 [16]: 0.06 µg/mL (≈ 0.112 µM)
- MIC90 [16]: 32 µg/mL (≈ 59.9 µM)
- MIC50 [17]: 0.5 µg/mL (≈ 0.935 µM)
- MIC90 [17]: 1 µg/mL (≈ 1.87 µM)
- MIC50 [18]: 0.12 µg/mL (≈ 0.224 µM)
- MIC90 [18]: 0.25 µg/mL (≈ 0.468 µM)
- MIC50 [19]: 0.06 µg/mL (≈ 0.112 µM)
- MIC90 [19]: 32 µg/mL (≈ 59.9 µM)
- MIC50 [20]: 0.06 µg/mL (≈ 0.112 µM)
- MIC90 [20]: 32 µg/mL (≈ 59.9 µM)
- MIC50 [21]: 0.06 µg/mL (≈ 0.112 µM)
- MIC90 [21]: > 64 µg/mL
- MIC50 [22]: 0.06 µg/mL (≈ 0.112 µM)
- MIC90 [22]: 0.12 µg/mL (≈ 0.224 µM)
- MIC50 [23]: 0.06 µg/mL (≈ 0.112 µM)
- MIC90 [23]: 0.12 µg/mL (≈ 0.224 µM)
- MIC50 [24]: 0.06 µg/mL (≈ 0.112 µM)
- MIC90 [24]: 32 µg/mL (≈ 59.9 µM)
- MIC [25]: ≤ 0.03 µg/mL
- MIC50 [26]: 0.06 µg/mL (≈ 0.112 µM)
- MIC90 [26]: 32 µg/mL (≈ 59.9 µM)
- MIC50 [27]: > 64 µg/mL
- MIC90 [27]: > 64 µg/mL
- MIC50 [28]: 0.5 µg/mL (≈ 0.935 µM)
- MIC90 [28]: 1 µg/mL (≈ 1.87 µM)
- MIC50 [29]: 0.03 µg/mL (≈ 0.0561 µM)
- MIC90 [29]: 0.12 µg/mL (≈ 0.224 µM)
- MIC50 [30]: 0.06 µg/mL (≈ 0.112 µM)
- MIC90 [30]: 32 µg/mL (≈ 59.9 µM)
- MIC50 [31]: 0.5 µg/mL (≈ 0.935 µM)
- MIC90 [31]: 1 µg/mL (≈ 1.87 µM)
- MIC [32]: 0.008 µg/mL (≈ 0.015 µM)
- MIC50 [32]: 0.008 µg/mL (≈ 0.015 µM)
- MIC90 [32]: 0.015 µg/mL (≈ 0.0281 µM)
- MIC50 [33]: > 64 µg/mL
- MIC90 [33]: > 64 µg/mL
- MIC50 [34]: 0.06 µg/mL (≈ 0.112 µM)
- MIC90 [34]: 0.12 µg/mL (≈ 0.224 µM)
- MIC50 [35]: > 64 µg/mL
- MIC50 [36]: 0.5 µg/mL (≈ 0.935 µM)
- MIC90 [36]: 1 µg/mL (≈ 1.87 µM)
- MIC50 [37]: 0.12 µg/mL (≈ 0.224 µM)
- MIC90 [37]: 0.25 µg/mL (≈ 0.468 µM)
- MIC50 [38]: 0.12 µg/mL (≈ 0.224 µM)
- MIC90 [38]: 0.25 µg/mL (≈ 0.468 µM)
- MIC50 [39]: 0.5 µg/mL (≈ 0.935 µM)
- MIC90 [39]: 1 µg/mL (≈ 1.87 µM)
- MIC50 [40]: 0.5 µg/mL (≈ 0.935 µM)
- MIC90 [40]: 1 µg/mL (≈ 1.87 µM)
- MIC50 [41]: 0.008 µg/mL (≈ 0.015 µM)
- MIC90 [41]: 0.06 µg/mL (≈ 0.112 µM)
- MIC50 [42]: 0.06 µg/mL (≈ 0.112 µM)
- MIC90 [42]: 32 µg/mL (≈ 59.9 µM)
- MIC50 [43]: 0.5 µg/mL (≈ 0.935 µM)
- MIC90 [43]: 2 µg/mL (≈ 3.74 µM)
- MIC50 [44]: 0.25 µg/mL (≈ 0.468 µM)
- MIC90 [44]: 0.5 µg/mL (≈ 0.935 µM)
- MIC50 [45]: 0.06 µg/mL (≈ 0.112 µM)
- MIC90 [45]: 32 µg/mL (≈ 59.9 µM)
- MIC [46]: ≤ 0.03 µg/mL
- MIC50 [47]: 0.5 µg/mL (≈ 0.935 µM)
- MIC90 [47]: 1 µg/mL (≈ 1.87 µM)
- MIC50 [48]: 0.5 µg/mL (≈ 0.935 µM)
- MIC90 [48]: 1 µg/mL (≈ 1.87 µM)
- MIC50 [49]: 0.12 µg/mL (≈ 0.224 µM)
- MIC90 [49]: 0.25 µg/mL (≈ 0.468 µM)
- MIC50 [50]: 0.12 µg/mL (≈ 0.224 µM)
- MIC90 [50]: 0.25 µg/mL (≈ 0.468 µM)
- MIC50 [51]: 0.06 µg/mL (≈ 0.112 µM)
- MIC90 [51]: 32 µg/mL (≈ 59.9 µM)
